One compound from US12522630B2, “MRNA cap analog and uses thereof” (HANMI FINE CHEMICAL CO., LTD., priority 2022, dated 2026) can be followed below.

One experiment deals with T1, T7 RNA polymerase (Escherichia phage T7, UniProt P00573).
T1 construct: purchased New England Biolab #dy1670
As to the kind of experiment: In vitro transcription of luciferase mRNA capped by co-transcriptional capping. The class given is biochemical. Particulars: 4 mM cap analog, 37° C., 1 to 4 hours; compared with ^7mG(3′OMe)pppA(2′OMe)pG (set as 100%); FIG. 1. The procedure:
For mRNA synthesis reaction using the compound of Example 8 as a cap analog, a transcription mixture including a 100 ng/ml firefly luciferase DNA transcription template (including poly A 101), 5 mM ATP, CTP, GTP, and 1-N-methyl-pseudouridine 5′-triphosphate (me^1øTP), 4 mM compound of Example 8, 10 U/ml T7 RNA polymerase (New England Biolab #dy1670), 1 U/ml RNase inhibiting protein, 0.01 U/ml inorganic pyrophosphatase, 40 mM Tris·HCl (pH 8.0), 20 mM magnesium acetate, 1 mM spermidine, and 10 mM DTT was prepared. As a comparative example, a transcription mixture was prepared by adding the TriLink's trinucleotide cap analog ^m7G(3′Ome)pppA(2′oMe)pG, instead of the compound of Example 8, under the same conditions. Each of the prepared transcription mixtures was reacted at 37° C. for 1 to 4 hours. […] Concentration of the purified mRNA was measured by using a Nanodrop spectrophotometer of Thermo Scientific, and a total amount of mRNA was calculated by multiplying the concentration and reaction volume. Then, in order to derive a mRNA in vitro transcription (IVT) yield, the total amount of mRNA synthesized using each different cap analog was divided by the input L-DNA content to quantify the IVT yield value according to the cap analog. […] This may be calculated by [Equation 1] below. […]

The next experiment relates to HEK293T cells. As to the kind of experiment: Translation of capped luciferase mRNA in HEK293T cell. The class given is cell-based, Human. Particulars: compared with mRNA capped with ^7mG(3′OMe)pppA(2′OMe)pG. The procedure:
Translation activity of luciferase mRNAs respectively prepared by in vitro transcription of the compound of Example 8 or ^7mG(3′OMe)pppA(2′OMe)pG in Experimental Example 1 was evaluated in Human embryonic kidney 293T cell lines (HEK293T). HEK293T cells were incubated in DMEM supplemented with 10% FBS and 1% penicillin/streptomycin at 37° C. under an atmosphere of 5% CO2. HEK293T cells were plated in a 6-well plate at a density of 1×10^5 cells/well. […] The cells were harvested after 1, 4, 6, 12, 24, and 48 hours from the transfection and luciferase activity was measured by using a Dual-Glo® Luciferase Assay kit (Promega catalog #E2910) according to manufacturer's recommendations: after removing the medium of the transfected cells, 75 μl of phosphate-buffered saline (PBS) was added thereto. Subsequently, 75 μl of a Dual-Glo® reagent was further added thereto, followed by mixing and incubation for 10 minutes, and then firefly luciferase luminescence was measured by using a luminometer (Perkin Elmer). Then, 75 μl of a Dual-Glo® Stop&Glo® reagent was further added thereto, followed by incubation for 10 minutes, and then Renilla luciferase luminescence was measured. A ratio of firefly luciferase luminous value to a Renilla luciferase luminous value, a control was calculated, and then luciferase activity per hour relative […] (RLU) was normalized, which is shown in FIG. 2. […]

T1 sequence (P00573 whole entry): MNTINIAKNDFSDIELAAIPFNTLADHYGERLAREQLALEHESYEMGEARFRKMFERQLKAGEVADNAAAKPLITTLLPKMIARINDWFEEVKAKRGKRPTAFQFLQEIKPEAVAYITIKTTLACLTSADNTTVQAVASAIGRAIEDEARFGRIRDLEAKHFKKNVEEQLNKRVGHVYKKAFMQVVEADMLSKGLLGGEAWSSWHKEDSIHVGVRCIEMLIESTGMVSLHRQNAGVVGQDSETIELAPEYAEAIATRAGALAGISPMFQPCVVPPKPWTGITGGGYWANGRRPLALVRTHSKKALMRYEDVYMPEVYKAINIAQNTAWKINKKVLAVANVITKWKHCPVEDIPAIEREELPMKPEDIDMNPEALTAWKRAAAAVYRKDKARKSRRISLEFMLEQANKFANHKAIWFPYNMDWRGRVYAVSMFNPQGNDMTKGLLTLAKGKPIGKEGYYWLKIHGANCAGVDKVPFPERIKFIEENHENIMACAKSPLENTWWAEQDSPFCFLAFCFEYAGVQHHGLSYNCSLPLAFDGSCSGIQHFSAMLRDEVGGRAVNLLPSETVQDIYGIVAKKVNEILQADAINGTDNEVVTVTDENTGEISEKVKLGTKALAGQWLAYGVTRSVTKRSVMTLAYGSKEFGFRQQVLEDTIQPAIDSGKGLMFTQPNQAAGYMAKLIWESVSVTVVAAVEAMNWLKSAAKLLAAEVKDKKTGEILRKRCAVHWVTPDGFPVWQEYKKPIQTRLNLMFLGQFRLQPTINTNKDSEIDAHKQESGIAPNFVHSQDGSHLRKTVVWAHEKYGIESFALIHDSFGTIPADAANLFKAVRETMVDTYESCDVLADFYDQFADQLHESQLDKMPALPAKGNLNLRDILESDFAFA

`COC1[C@@H](OP(=O)(O)OC[C@H]2O[C@@H](n3cnc4c(=O)[nH]c(N)nc43)C(O)[C@H]2O)[C@@H](COP(=O)(O)OP(=O)(O)OP(=O)(O)OC[C@H]2O[C@@H](n3c[n+](C)c4c(=O)[nH]c(N)nc43)C(O)[C@H]2OS(C)(=O)=O)O[C@H]1n1cnc2c(N)ncnc21` (stereo partly drawn) [Example 8, ^7mG(3′OMs)pppA(2′OMe)pG]: the “IVT yield of luciferase mRNA with the compound as cap analog” value on T7 RNA polymerase is listed as “almost same”. The “total protein expression level (AUC of luciferase activity) of mRNA capped with the compound” value in the experiment on HEK293T cells (1 hour to 48 hours after transfection, FIG. 3) is on record as “higher total protein expression level”. In the experiment on HEK293T cells (from 6 hours to 12 hours after transfection, FIG. 2), the “luciferase activity of mRNA capped with the compound” value is reported as “far higher luciferase activity”.
